Tests used:
[1] = test system: SAGPY (Arrowhead (Pygmaea)); test: Postemergence weed control under flooded paddy conditions; assay type: in vivo, Sagittaria pygmaea; conditions: postemergence weeds, 3-4 weeks after treatment
Summary of the method: (§1)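 Weeds 3 to 5 cm tall and rice seedlings at the 1.5 to 2.5 leaf stage were flooded, with water held 1.5 to 3 cm above the soil. Compounds in 50/50 v/v aqueous/acetone went into the flood water at about 0.0313 to 0.500 kg/ha. Visual 0-9 ratings versus control were made 3 to 4 weeks later.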

[2] = test system: GALAP (Galium); test: Postemergence herbicidal evaluation; assay type: in vivo, Galium aparine
Summary of the method: (§2)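 Visual 0–9 rating versus control (stand, vigor, malformation, size, chlorosis, overall appearance), taken four to five weeks post-spray. Two-week-old seedlings received roughly 0.0156–0.500 kg/ha active in acetone/water (50/50) with 0.5% TWEEN 20 via nozzle at 40 psi.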

[3] = test system: MOOVA (Monochoria); test: Preemergence weed control under flooded paddy conditions; assay type: in vivo, Monochoria vaginalis; conditions: rated 3-4 weeks after treatment
Summary of the method: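 Values are visual 0-9 scores against a control for a preemergence application into paddy flood water at about 0.0313 to 0.500 kg/ha. Greenhouse duration was three to four weeks.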

[4] = test system: ECHORC (Watergrass (Calif.)); test: as above; assay type: in vivo, Echinochloa oryzoides; conditions: rated 3-4 weeks after treatment
Summary of the method: (§3)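 Seeds or propagules sown in silt loam kept flooded 1.5-3 cm; compounds in 50/50 acetone/water pipetted into flood water at about 0.0313 to 0.500 kg/ha. Greenhouse; visual 0-9 rating versus untreated control 3-4 weeks after treatment.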

[5] = test system: IPOHE (Morningglory, Ivyleaf); test: Preemergence herbicidal evaluation; assay type: in vivo, Ipomoea hederacea; conditions: rated 4-5 weeks after treatment
Summary of the method: (§4)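 Scores (0–9) reflect visual comparison with control plants for stand, vigor, malformation, size and chlorosis. Compound was applied to the soil after sowing, before emergence, as an aqueous acetone spray (about 0.0156–0.500 kg/ha), and cups were kept in a greenhouse for 4–5 weeks.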

[6] = test system: CYPIR (Rice Flatsedge); test: Postemergence weed control under flooded paddy conditions; assay type: in vivo, Cyperus iria; conditions: postemergence weeds, 3-4 weeks after treatment
Summary of the method: as §1

[7] = test system: ORYSAT (Rice, Tebonnet); test: Postemergence herbicidal evaluation; assay type: in vivo, Oryza sativa, (L.) Tebonnet
Summary of the method: as §2

[8] = test system: CYPIR (Rice Flatsedge); test: Preemergence weed control under flooded paddy conditions; assay type: in vivo, Cyperus iria; conditions: rated 3-4 weeks after treatment
Summary of the method: as §3

[9] = test system: ZEAMX (Corn, Field); test: Preemergence herbicidal evaluation; assay type: in vivo, Zea mays; conditions: rated 4-5 weeks after treatment
Summary of the method: as §4

[10] = test system: ECHCG (Barnyardgrass); test: Postemergence herbicidal evaluation; assay type: in vivo, Echinochloa crus-galli
Summary of the method: as §2

[11] = test system: CYPSE (Flatsedge); test: Postemergence weed control under flooded paddy conditions; assay type: in vivo, Cyperus serotinus; conditions: postemergence weeds, 3-4 weeks after treatment
Summary of the method: as §1

[12] = test system: SETVI (Foxtail, Green); test: Postemergence herbicidal evaluation; assay type: in vivo, Setaria viridis
Summary of the method: as §2

[13] = test system: TRZAWR (Wheat, Winter, cv Riband); test: Preemergence herbicidal evaluation; assay type: in vivo, Triticum aestivum; conditions: rated 4-5 weeks after treatment
Summary of the method: as §4

[14] = test system: ABUTH (Velvetleaf); test: Postemergence herbicidal evaluation; assay type: in vivo, Abutilon theophrasti
Summary of the method: as §2

CCOC(=O)CN1C(=O)C(Cc2ccccc2OC(C)C(=O)OC)SC1=Nc1cc(-n2c(=O)cc(C(F)(F)F)n(C)c2=O)c(F)cc1Cl (stereo not drawn) [Compound 50, 2-{{2-Chloro-5-[3,6-dihydro-3-methyl-2,6-dioxo-4-(trifluoromethyl)-1(2H)-pyrimidinyl]-4-fluoro-phenyl}imino}-5-(o-hydroxybenzyl)-4-oxo-3-thiazolidineacetic acid, ethyl ester, ester with methyl lactate]
3.0: Herbicidal rating SAGPY ([1]; rate 0.1250 kg/ha) | Herbicidal rating SAGPY ([1]; rate 0.2500 kg/ha) | Herbicidal rating MOOVA ([3]; 0.1250 kg/ha)
4.0: Postemergence herbicidal rating GALAP ([2]; Rate 0.0625 kg/ha) | Herbicidal rating ECHORC ([4]; 0.0313 kg/ha)
1.0: Postemergence herbicidal rating ORYSAT ([7]; Rate 0.0156 kg/ha) | Postemergence herbicidal rating ORYSAT ([7]; Rate 0.0313 kg/ha)
2.0: Herbicidal rating SAGPY ([1]; rate 0.0313 kg/ha) | Herbicidal rating SAGPY ([1]; rate 0.0625 kg/ha) | Postemergence herbicidal rating GALAP ([2]; Rate 0.0313 kg/ha) | Postemergence herbicidal rating ORYSAT ([7]; Rate 0.0625 kg/ha) | Postemergence herbicidal rating ECHCG ([10]; Rate 0.0625 kg/ha) | Postemergence herbicidal rating SETVI ([12]; Rate 0.0625 kg/ha)
9.0: Postemergence herbicidal rating ABUTH ([14]; Rate 0.0313 kg/ha) | Postemergence herbicidal rating ABUTH ([14]; Rate 0.0625 kg/ha)
7.0: Herbicidal rating MOOVA ([3]; 0.2500 kg/ha) | Herbicidal rating ECHORC ([4]; 0.0625 kg/ha) | Herbicidal rating ECHORC ([4]; 0.1250 kg/ha) | Herbicidal rating ECHORC ([4]; 0.2500 kg/ha)
6.0: Postemergence herbicidal rating ABUTH ([14]; Rate 0.0156 kg/ha)
0.0: Postemergence herbicidal rating GALAP ([2]; Rate 0.0156 kg/ha) | Herbicidal rating MOOVA ([3]; 0.0313 kg/ha) | Herbicidal rating MOOVA ([3]; 0.0625 kg/ha) | Preemergence herbicidal rating IPOHE ([5]; rate 0.0625 kg/ha) | Preemergence herbicidal rating IPOHE ([5]; rate 0.1250 kg/ha) | Preemergence herbicidal rating IPOHE ([5]; rate 0.2500 kg/ha) | Herbicidal rating CYPIR ([6]; rate 0.0313 kg/ha) | Herbicidal rating CYPIR ([6]; rate 0.0625 kg/ha) | Herbicidal rating CYPIR ([6]; rate 0.1250 kg/ha) | Herbicidal rating CYPIR ([6]; rate 0.2500 kg/ha) | Herbicidal rating CYPIR ([8]; 0.0313 kg/ha) | Herbicidal rating CYPIR ([8]; 0.0625 kg/ha) | Herbicidal rating CYPIR ([8]; 0.1250 kg/ha) | Herbicidal rating CYPIR ([8]; 0.2500 kg/ha) | Preemergence herbicidal rating ZEAMX ([9]; rate 0.0625 kg/ha) | Preemergence herbicidal rating ZEAMX ([9]; rate 0.1250 kg/ha) | Preemergence herbicidal rating ZEAMX ([9]; rate 0.2500 kg/ha) | Postemergence herbicidal rating ECHCG ([10]; Rate 0.0156 kg/ha) | Postemergence herbicidal rating ECHCG ([10]; Rate 0.0313 kg/ha) | Herbicidal rating CYPSE ([11]; rate 0.0313 kg/ha) | Herbicidal rating CYPSE ([11]; rate 0.0625 kg/ha) | Herbicidal rating CYPSE ([11]; rate 0.1250 kg/ha) | Herbicidal rating CYPSE ([11]; rate 0.2500 kg/ha) | Postemergence herbicidal rating SETVI ([12]; Rate 0.0156 kg/ha) | Postemergence herbicidal rating SETVI ([12]; Rate 0.0313 kg/ha) | Preemergence herbicidal rating TRZAWR ([13]; rate 0.0625 kg/ha) | Preemergence herbicidal rating TRZAWR ([13]; rate 0.1250 kg/ha) | Preemergence herbicidal rating TRZAWR ([13]; rate 0.2500 kg/ha)
